Patent US8203033B2, “Methods and compositions for providing tolerance to multiple herbicides” (Pioneer Hi-Bred International, Inc., priority 2005, dated 2012)

Legend:
[1] = test system: non-transgenic control soybeans; test: Postemergence herbicide spray of soybeans, visual injury; type: in vivo; conditions: 35 g/ha
Protocol: (§1) Young regenerated transgenic plants were sprayed with 1× glyphosate (1× rate of glyphosate is 1120 g/ha of glyphosate isopropylamine) to cull segregants. Four replications were performed for each treatment. Plants were then treated with various herbicides, including glyphosate and ALS-inhibitor herbicides.
(§2) Six soybean seeds from each variety to be assayed were planted 1 cm deep in 5.5 (13.97 cm) inch square plastic container of a synthetic growth medium. […] When possible, containers were thinned to two uniform plants. Non-transgenic lines were thinned to two uniform plants per container.
(§3) Results are expressed below in Table 11 as the mean of four replications.

GAT-HRA soybeans = test: as above; type: in vivo; conditions: 35 g/ha
Protocol: as §1, §2, §3

COC(=O)c1ccccc1S(=O)(=O)NC(=O)N(C)c1nc(C)nc(OC)n1 [Tribenuron-methyl, methyl 2-[[[[N-(4-methoxy-6-methyl-1,3,5-triazin-2-yl)-N-methylamino]carbonyl]-amino]sulfonyl]benzoate]
effect on non-transgenic control soybeans [1]: killed | damage of GAT- and HRA-containing transgenic soybeans (GAT-HRA soybeans): no significant damage
